Values of other authors as cited in patent publication US20200254002A1, “COMBINATION THERAPIES FOR TREATING MUSCULAR DYSTROPHY” (SAREPTA THERAPEUTICS, INC., priority 2017, published 2020).
“Also recorded” adds a separate entry of the source. Read-outs that look alike come from different tables or passages of the source. Values belong to the molecule of their own block, whether it stands above or below them.

Assays:
[1] = phase I clinical program in adults
cNF-κB = conditions: in vitro
ryanodine receptor = conditions: patient cells and a mouse model of DMD
dystrophin = conditions: DMD patients
[2] = system: exon 53 of dystrophin pre-mRNA; conditions: for Exon skipping in DMD patients: all 25 patients, at least 48 weekly doses
[3] = system: normal human skeletal muscle cells or muscle cells from DMD patients; conditions: RT-PCR and Western blot
human DMD transcript = conditions: hDMD mouse model
immune response = conditions: rat, in vivo
[4] = Part 2/Pl patients, 48-51 weeks
[5] = Part 1 patients, 60-76 weeks dosing
[6] = Part 2 patients, ~48-51 weeks dosing

Molecule: CC/C=C\C/C=C\C/C=C\C/C=C\C/C=C\C/C=C\CCC(=O)NCCNC(=O)c1ccccc1O [CAT-1004, N-(2-[(4Z,7Z,10Z,13Z,16Z,19Z)-docosa-4,7,10,13,16,19-hexaenamido]ethyl)-2-hydroxybenzamide]
- Safety and tolerability [1]: safe, well tolerated

Molecule: CC/C=C\C/C=C\C/C=C\C/C=C\C/C=C\CCCC(=O)NCCNC(=O)c1ccccc1O [CAT-1041]
- cNF-κB activation (cNF-κB): inhibit cNF-κB activation in vitro
- Exercise endurance (Mdx mice; mdx mice): increased exercise endurance
- Inflammation and fibrosis (Mdx mice; mdx mice): reduced inflammation and fibrosis
- Muscle fibrosis (Mdx mice; mdx mice, long-term studies): reduces muscle fibrosis
- Muscle function (Mdx mice; mdx mice, long-term studies): preserves muscle function
- Skeletal muscle weight (Mdx mice; mdx mice, long-term studies): increases skeletal muscle weight
- Dystrophic phenotype (Mdx mice; mdx mouse, long-term treatment): improves the phenotype
- Diaphragm function (Mdx mice; mouse DMD model): improved diaphragm function
- Dystrophic phenotype (NF-κB p65; GRMD dog, long-term treatment): improves the phenotype
- Diaphragm function (NF-κB p65; dog DMD model): improved diaphragm function

- Antisense-mediated exon skipping (ryanodine receptor): enhance antisense-mediated exon skipping
Molecule: O=C1CN(/N=C/c2ccc(-c3ccc([N+](=O)[O-])cc3)o2)C(O)=N1 [dantrolene]

Molecule: all-P-ambo-[P,2′,3′-trideoxy-P-(dimethylamino)-2′,3′-imino-2′,3′-seco](2′a[…]5′)(GTTGCCTCCGGTTCTGAAGGTGTTC) 5′-[4-({2-[2-(2-hydroxyethoxy)ethoxy]ethoxy}carbonyl)-N,N-dimethylpiperazine-1-phosphonamidate] [SRP-4053]
- Mean fiber intensity, de novo dystrophin (dystrophin; above baseline): statistically significant increase (p<0.001) above baseline in de novo dystrophin
- Sarcolemmal dystrophin localization (dystrophin; listed as Golodirsen): correctly localized to the sarcolemma membrane; also recorded: observed in all patients
- Decrease from Baseline (RT-PCR, patients) ([2]; All patients): 0
- Fold Increase (RT-PCR exon skipping) ([2]; All patients): 7.3
- Increase > 0.1 from Baseline (RT-PCR, patients) ([2]; All patients): 25 (100.0%)
- Increase from Baseline (RT-PCR, patients) ([2]; All patients): 25 (100.0%)
- No Increase > 0.1 from Baseline (RT-PCR, patients) ([2]; All patients): 0
- Unchanged from Baseline (RT-PCR, patients) ([2]; All patients): 0
- Decrease from Baseline (RT-PCR, patients) ([2]; Part 1 patients, 60-76 weeks): 0
- Increase > 0.1 from Baseline (RT-PCR, patients) ([2]; Part 1 patients, 60-76 weeks): 8 (100.0%)
- Increase from Baseline (RT-PCR, patients) ([2]; Part 1 patients, 60-76 weeks): 8 (100.0%)
- No Increase > 0.1 from Baseline (RT-PCR, patients) ([2]; Part 1 patients, 60-76 weeks): 0
- Unchanged from Baseline (RT-PCR, patients) ([2]; Part 1 patients, 60-76 weeks): 0
- Decrease from Baseline (RT-PCR, patients) [2, 4]: 0
- Increase > 0.1 from Baseline (RT-PCR, patients) [2, 4]: 17 (100.0%)
- Increase from Baseline (RT-PCR, patients) [2, 4]: 17 (100.0%)
- No Increase > 0.1 from Baseline (RT-PCR, patients) [2, 4]: 0
- Unchanged from Baseline (RT-PCR, patients) [2, 4]: 0
- Exon skipping in DMD patients [2]: increase over baseline levels in exon skipping
- Exon skipping in DMD patients ([2]; listed as Golodirsen): observed in all patients
- Mean Change from baseline (SD), dystrophin by Western blot (dystrophin protein; All patients): 0.92 (1.01)
- On treatment Mean % normal (SD), dystrophin by Western blot (dystrophin protein; All patients): 1.02 (1.03) % normal
- Dystrophin protein as measured by Western blot (dystrophin protein; DMD patients, over baseline): statistically significant increase over baseline in dystrophin protein
- Mean Change from baseline (SD), dystrophin by Western blot (dystrophin protein; [5]): 1.29 (1.51)
- On treatment Mean % normal (SD), dystrophin by Western blot (dystrophin protein; [5]): 1.40 (1.57) % normal
- Mean Change from baseline (SD), dystrophin by Western blot (dystrophin protein; [6]): 0.75 (0.67)
- On treatment Mean % normal (SD), dystrophin by Western blot (dystrophin protein; [6]): 0.84 (0.64) % normal
- Baseline Mean % normal (SD), dystrophin by Western blot (dystrophin protein; All patients): 0.09 (0.07) % normal
- Baseline Mean % normal (SD), dystrophin by Western blot (dystrophin protein; [5]): 0.10 (0.09) % normal
- Baseline Mean % normal (SD), dystrophin by Western blot (dystrophin protein; [6]): 0.09 (0.06) % normal

Molecule: eteplirsen
- Exon 51 skipping in vitro [3]: potent inducer of exon 51 skipping
- Exon 51 skipping in vivo (human DMD transcript): confirmed in vivo
- Effect on the immune response (immune response): no adverse effect on the immune response
